# Legend:
# L. amazonensis = system: L. amazonensis; design: method as in PMID 22970332; conditions: read-out: IC50 (inhibition of infection by L. amazonensis); cited from earlier work
# [1] = Cytotoxicity on macrophages (AlamarBlue, 24 h); assay type: cell-based; conditions: mouse, J774A.1 macrophages, J774A.1, 24 h, read-out: CC50: murine macrophages
# Procedure: Cytotoxicity of the tested molecules was evaluated after 24 h using macrophages of the murine cell line J774.A1 (American Type Culture Collection #TIB-67). The cells were maintained in DMEM medium at 37 °C in a 5% CO2 humidified incubator. The viability of the macrophages was determined with the AlamarBlue assay and the emitted fluorescence was assayed in an Enspire microplate reader (PerkinElmer Inc.) at 570/585 nm. Briefly, 50 µl of macrophages was placed in a 96-well flat bottom plate at a density of 2 × 10^5/ml in RPMI medium supplemented with 10% FBS without phenol. Cells were allowed to adhere for 15 min, and their progress was checked using a Leika inverted microscope (Leika Camera AG, Wetzlar, Germany). At the same time, a serially dilution of the test compounds was made in a deep 96-well plate with the same medium, and then 50 µl of each serially diluted molecule was added to each well of the 96-well flat bottom plate. Finally, 10% of AlamarBlue was added to each well. The plates were incubated at 37 °C in 5% CO2 for 24 h. Dose–response curves were plotted and the 50% cytotoxic concentrations (CC50) were obtained. The analyses were performed in triplicate.
# Trypanosoma cruzi [2] = assay: ATP level (CellTiter-Glo); assay type: cell-based; conditions: T. cruzi, IC90, 24 h, relative to negative control
# Procedure: The CellTiter-Glo® luminescent cell viability assay (Promega, WI, USA) was used to quantify the adenosine triphosphate (ATP) concentration. Cells of the kinetoplastid strains (for both L. amazonensis [2 × 10^6 cells/ml] and T. cruzi [5 × 10^5cells/ml]) were incubated for 24 h with the compounds to be tested, at IC90 and 26 °C. After incubation, the cells were centrifuged and resuspended in 100 μl. To this volume, we added 100 μl of the reactive in white 96-well plates. After incubation, the luminescence signal was measured using the Enspire multimode plate reader. The decrease in ATP level was expressed as a percentage relative to the negative control. Miltefosine and benznidazole were tested as the positive control for L. amazonensis and T. cruzi, respectively.
# Trypanosoma cruzi [3] = assay: Oxidative stress / ROS accumulation (CellROX Deep Red); assay type: cell-based; conditions: T. cruzi, IC90, 24 h
# Procedure: (§1) The reagent used for this assay was a fluorogenic probe to measure cellular oxidative stress upon oxidation by reactive oxygen species (ROS). To perform the test, cells were incubated with the compounds to be tested, at IC90 for 24 h. The cells were centrifuged and resuspended in a volume of 50 μl, following which CellROX™ Deep Red oxidative stress reagent (Thermo-Fisher Scientific) was added to 96-well plates at […]. The plates were then incubated for 30 min at 37 °C. After incubation, the results were analyzed by cell imaging using the Evos cell imaging system. Cells treated with different compounds were compared with untreated control cells and the positive control. Fluorescence intensity was also measured using the Enspire multimode plate reader at excitation/emission wavelengths of 640/665 nm. Accumulation ROS at the cellular level is a good indicator of oxidative stress and is precursor to a chain reaction leading damage at the cellular level to proteins, nucleic acids, lipids, membrane and organelles. These cellular alterations can lead to activation of the cell death process. As such, ROS play an important role in cell signaling and the apoptosis pathway. An intracellular excess of ROS can be detected by the cell-permeable CellROX™ Deep Red reagent, which is a fluorogenic ROS sensor.
# [4] = system: Trypanosoma cruzi epimastigotes (Y strain); assay: In vitro evaluation on T. cruzi epimastigotes (AlamarBlue, 72 h); assay type: cell-based; conditions: nonlinear regression of AlamarBlue curve, read-out: IC90 Trypanosoma cruzi: epimastigote
# Procedure: Experiments including in vitro activity assays of isolated compounds 1–3 were performed against the promastigote and amastigote stages of Leishmania amazonensis (MHOM/BR/77/LTB0016) and the epimastigote stage of Trypanosoma cruzi (Y strain). Promastigotes of L. amazonensis were cultured in Schneider’s medium (Sigma-Aldrich, St. Louis, MO, USA). Typanosoma cruzi strain Y was cultured in liver Infusion tryptose (LIT) medium. The three molecules 1-3 were tested against epimastigotes of T. cruzi. Briefly, the molecules were dissolved in DMSO in 96-well plates and a serially diluted concentration was made in 100 μl of LIT medium supplemented with 10% heat-inactivated FBS. In all tests, a maximum of 1% DMSO was used to dissolve the highest dose of the compounds without inducing any effects on the parasites; epimastigotes in the logarithmic growth phase were then counted, adjusted to 5 × 10^5 cells/ml, distributed on the previous 96-well plate and incubated at 27 °C for 72 h. The plate was observed under an inverted microscope after 72 h of incubation and analyzed statistically as described for the leishmanicidal test. Hoechst dye is a blue-fluorescent dye that stains condensed chromatin of apoptotic cells. To detect DNA condensation, the chromatin condensation/dead cell apoptosis kit was used (Invitrogen, Thermo Fisher Scientific, Waltham, MA, USA). Cells were incubated in the presence of the compounds to be tested at IC90. The IC90 values were determined using nonlinear regression of the AlamarBlue® curve. After 24 h of incubation, cells were harvested and resuspended in medium, following which 1 μl of Hoechst 33342 stock solution was added to parasites and incubated for 20 min. Results were analyzed by cell imaging using the Evos FL cell imaging system (Thermo Fisher Scientific). The experiments were repeated using a double-stain apoptosis detection kit (Hoechst 33342/PI; Thermo Fisher Scientific). […] A positive control was also tested: miltefosine (L. amazonensis) and benznidazole (T. cruzi).
# T. cruzi = system: T. cruzi; design: method as in PMID 23442789; conditions: read-out: IC50 against T. cruzi; cited from earlier work
# [5] = system: Leishmania amazonensis amastigotes; assay: Anti-amastigotes assay (intra-macrophagic stage, J774A.1); assay type: cell-based; conditions: J774.A1; Leishmania amazonensis, intracellular in J774A.1; read-out: IC50: amastigote
# Procedure: The three molecules 1-3 were tested against the intra-macrophagic stage of L. amazonensis as previously described. Briefly, in a 96-well, flat-bottom plate, macrophages of the J774A.1 cell line (American Type Culture Collection #TIB-67) were cultured at a density of 2 × 10^5 cells/ml in RPMI 1640 medium supplemented with 10% heat-inactivated FBS and incubated for 1 h at 37 °C in a 5% CO2 atmosphere to allow almost complete attachment of the cells. The macrophages were then infected with L. amazonensis promastigotes in the stationary phase (7-day-old culture) at a ratio of 1:10 (macrophage:parasite) at a concentration of 2 × 10^6 cells/ml and incubated at 37 °C in 5% CO2 for 24 h. Wells were washed with medium to remove external promastigotes. Thereafter, the infected macrophages were treated with the serially diluted concentrations of the pure compounds for 24 h, following which the medium was removed carefully and replaced by 30 μl of new medium containing 0.05% sodium dodecyl sulfate and the plate shaken for 30 s. Subsequently, 170 μl of Schneider’s medium was added to each well to give a final volume of 200 μl, and 20 μl of AlamarBlue® was added to the plate; the plate was then incubated at 26 °C for 72 h, following which the plates were analyzed using the same protocol as for the promastigotes assay.
# Leishmania amazonensis = assay: Oxidative stress / ROS accumulation (CellROX Deep Red); assay type: cell-based; conditions: L. amazonensis, IC90, 24 h
# Procedure: as §1
# [6] = system: Leishmania amazonensis promastigotes; assay: Anti-promastigotes assay (AlamarBlue, 72 h); assay type: cell-based
# Procedure: Experiments including in vitro activity assays of isolated compounds 1–3 were performed against the promastigote and amastigote stages of Leishmania amazonensis (MHOM/BR/77/LTB0016) and the epimastigote stage of Trypanosoma cruzi (Y strain). Promastigotes of L. amazonensis were cultured in Schneider’s medium (Sigma-Aldrich, St. Louis, MO, USA). Typanosoma cruzi strain Y was cultured in liver Infusion tryptose (LIT) medium.
# The bioassay was performed using the AlamarBlue® method as previously described. Promastigotes of L. amazonensis were grown at 26 °C in RPMI 1640 modified medium (Gibco BRL Life Technologies Inc., Gaithersburg, MD, USA) and supplemented with 10% heat-inactivated fetal bovine serum (FBS). Cultures in the logarithmic phase were seeded in sterilized 96-well microtiter plates (Corning™, Corning, NY, USA) (10^6 parasites/ml) containing the samples dissolved in 1% DMSO at the suitable concentration to be tested in serial dilutions, and Leishmania medium (RPMI 1640) was used to reach a final volume of 200 μl per well; then 10% of AlamarBlue® was added to the entire plate. After an incubation of 72 h, the plate was checked visually using an inverted microscope, then analyzed using an Enspire multimode plate reader (PerkinElmer, Inc., Waltham, MA, USA) at excitation and emission wavelengths of 570 and 585 nm, respectively. Dose–response curves were plotted, and the concentration at which one half of the maximal inhibitory effect was obtained (IC50) was determined. The analyses were performed in triplicate.
# (§2) Hoechst dye is a blue-fluorescent dye that stains condensed chromatin of apoptotic cells. To detect DNA condensation, the chromatin condensation/dead cell apoptosis kit was used (Invitrogen, Thermo Fisher Scientific, Waltham, MA, USA). Cells were incubated in the presence of the compounds to be tested at IC90. The IC90 values were determined using nonlinear regression of the AlamarBlue® curve. After 24 h of incubation, cells were harvested and resuspended in medium, following which 1 μl of Hoechst 33342 stock solution was added to parasites and incubated for 20 min. Results were analyzed by cell imaging using the Evos FL cell imaging system (Thermo Fisher Scientific). The experiments were repeated using a double-stain apoptosis detection kit (Hoechst 33342/PI; Thermo Fisher Scientific). […] A positive control was also tested: miltefosine (L. amazonensis) and benznidazole (T. cruzi).
# [7] = system: Leishmania amazonensis promastigotes; assay: DNA condensation assay (Hoechst 33342 / PI); assay type: cell-based; conditions: L. amazonensis promastigotes, IC90, 24 h
# Procedure: as §2
# DNA condensation is an important cellular event, providing evidence of apoptotic cell death. Hoechst dye is a blue-fluorescent dye that stains condensed chromatin. […] Also, using propidium iodine (PI), it is possible to distinguish dead cells, which stain red when PI penetrates the nucleus. The results of staining were evaluated using cell imaging. Different microscopy images are regrouped in Fig. 2 (for L. amazonensis) and Fig. 3 (for T. cruzi). […] A clear reduction in cell number is also evident.
structure (smiles),measurement,setting,value
C[C@H]1/C=C/[C@@]2(C)CC[C@@H](C(C)(C)O)[C@@H]2[C@@H](O)C[C@](C)(O)/C=C/C1 [Dolabelladienetriol],IC50,L. amazonensis,44 µM
"O=C(Cn1ccnc1[N+](=O)[O-])NCc1ccccc1 [Benznidazole, reference compound]",CC50 at 24 h,[1],400 µM
same,decrease in ATP concentration,Trypanosoma cruzi [2],> 80%
same,ROS accumulation (fluorescence vs negative control),Trypanosoma cruzi [3],significant increase in fluorescence
same,IC90,[4],25.6 µM
CC(C)=CC(=O)C/C(C)=C/CC/C(C)=C/CC/C(C)=C/CO [Eleganolone],IC50,T. cruzi,58 µM
"CCCCCCCCCCCCCCCCOP(=O)([O-])OCC[N+](C)(C)C [Miltefosine, reference compound]",CC50 at 24 h,[1],72.2 µM
same,IC50,[5],3.11 µM
same,ROS accumulation (fluorescence vs negative control),Leishmania amazonensis,more remarkable
same,IC50,"[6]; 72 h, read-out: IC50: promastigote",6.47 ± 0.58 µM
same,IC90,"[6]; nonlinear regression of AlamarBlue curve, read-out: IC90 Leishmania amazonensis: promastigote",9.63 µM
same,chromatin condensation / cell death stage (Hoechst/PI staining),[7],dead cells

# From paper PMC8042727, “Apoptosis-like cell death upon kinetoplastid induction by compounds isolated from the brown algae Dictyota spiralis” (Parasites & Vectors, 2021)
